Laboratory results: patent US4156011A, “Sulphur- and oxygen-containing diaryl compounds” (priority 1974, dated 1979)
Where a name gives a salt, the structure may show the parent alone. Read-outs that look alike come from different tables or passages of the source. Each block holds one molecule with its values, some of them ahead of it.

How the values were obtained:
[1] = Solubility of the isolated product; conditions: for solubility in water (in words) / solubility: water
[2] = Reduction of lipids and cholesterol in rats treated orally; assay type: in vivo; conditions: for inhibition in vivo at 20 mg/kg / inhibition in vivo at 100 mg/kg: Rattus norvegicus, 96 h; for inhibition in vivo at 20 mg/kg: oral 20 mg/kg
[3] = normal diet, oral 50 mg/kg daily, 3 and 5 days

solubility in alcohol (in words) [1]: soluble in alcohol
solubility in water (in words) [1]: insoluble in water
Molecule: CC(Oc1ccccc1Sc1ccc(Cl)cc1)C(=O)OCCNCCSCCCCCCCCCCSCCNCCOC(=O)C(C)Oc1ccccc1Sc1ccc(Cl)cc1 (racemic) [CRL 40 247, 6,17-Dithia-3,20-diaza-1,22-docosanediol di-(±)-[2-(4-chlorophenylthio)phenoxy-propionate]]

Molecule: CC(CNCCO)Oc1ccc(Oc2ccc(Cl)cc2)cc1.Cl (racemic) [CRL 40 301, (±)-N-Hydroxyethyl-2-[4-(4-chlorophenoxy)-phenoxy]-1-propylamine hydrochloride]
solubility [1]: 200 mg/mL

Molecule: CC(CNC(C)(C)CO)Oc1ccc(Oc2ccc(Cl)cc2)cc1.Cl (racemic) [CRL 40 302, (±)-N-(β-Hydroxy-α,α-dimethylethyl)-2-[4-(4-chlorophenoxy)-phenoxy]-1-propylamine hydrochloride]
solubility [1]: 200 mg/mL

Molecule: CC(Oc1ccc(Sc2ccc(Cl)cc2)cc1)C(=O)O (racemic) [CRL 40,246, (±)-2-[4-Chlorophenylthio)-phenoxy]-propionic acid]
solubility in alcohol (in words) [1]: soluble in alcohol
solubility in water (in words) [1]: insoluble in water

solubility in water (in words) [1]: insoluble in water
Molecule: CC(Sc1ccc(Oc2ccc(Cl)cc2)cc1)C(=O)O (racemic) [CRL 40,281, (±)-2-[4-(4-chlorophenoxy)-phenylthio]-propionic acid]

Molecule: CC(Oc1ccc(Oc2ccc(Cl)cc2)cc1)C(=O)O (racemic) [CRL 40,299, (±)-2-[4-(4-Chlorophenoxy)-phenoxy]-propionic acid]
solubility in water (in words) [1]: insoluble in water

solubility in water (in words) [1]: water-insoluble
Molecule: CC(Sc1ccc(Sc2ccc(Cl)cc2)cc1)C(=O)O (racemic) [CRL 40,351, (±)-2-[p-(p-Chlorophenylthio)-phenylthio]-propionic acid]

Molecule: CC(Oc1ccc(Sc2ccc(Cl)cc2)cc1)C(=O)OCCSCCCCCCCCCCSCCOC(=O)C(C)Oc1ccc(Sc2ccc(Cl)cc2)cc1 (racemic) [CRL 40,390, 3,14-Dithia-1,16-hexadecyl di-(±)-{2-[p-(p-chlorophenylthio)-phenoxy]-propionate}]
inhibition in vivo at 20 mg/kg ([2]; 4 days, read-out: reduction in the cholesterol): 25%
inhibition in vivo at 20 mg/kg ([2]; 4 days, read-out: reduction in the lipids): 25%

Molecule: CC(COC(=O)CSc1ccc(Sc2ccc(Cl)cc2)cc1)SCCCCCCCCCCSC(C)COC(=O)CSc1ccc(Sc2ccc(Cl)cc2)cc1 (racemic) [CRL 40,395, (±)-2,15-Dimethyl-3,14-dithia-1,16-hexadecyl di-[p-(p-chlorophenylthio)-phenylthio-acetate]]
inhibition in vivo at 100 mg/kg ([2]; oral 100 mg/kg, 4 days): 27%
reduction in the (total) lipids ([2]; oral 100 mg/kg, 4 days): 18%

Molecule: CC(Sc1ccc(Sc2ccc(Cl)cc2)cc1)C(=O)OCCSCCCCCCCCCCSCCOC(=O)C(C)Sc1ccc(Sc2ccc(Cl)cc2)cc1 (racemic) [CRL 40,398, 3,14-Dithia-1,16-hexadecyl di-(±)-{2-[p-(p-chlorophenylthio)-phenylthio]-propionate}]
change in the cholesterol content (in words) ([2]; oral 100 mg/kg, 4 days): no change in the cholesterol content
reduction in the (total) lipids ([2]; oral 100 mg/kg, 4 days): 17%

Molecule: CC(COC(=O)C(C)(C)Sc1ccc(Sc2ccc(Cl)cc2)cc1)SCCCCCCCCCCSC(C)COC(=O)C(C)(C)Sc1ccc(Sc2ccc(Cl)cc2)cc1 (racemic) [CRL 40,403, (±)-2,15-Dimethyl-3,14-dithia-1,16-hexadecyl di-{2-[p-(p-chlorophenylthio)-phenylthio]-2-methylpropionate}]
inhibition in vivo at 100 mg/kg ([2]; oral 100 mg/kg, 4 days): 32%
reduction in the (total) lipids ([2]; oral 100 mg/kg, 4 days): 10%

Molecule: CC(Sc1ccc(Oc2ccc(Cl)cc2)cc1)C(=O)OCCSCCCCCCCCCCSCCOC(=O)C(C)Sc1ccc(Oc2ccc(Cl)cc2)cc1 (racemic) [CRL 40,408, 3,14-Dithia-1,16-hexadecyl di-(±)-{2-[p-(p-chlorophenoxy)-phenylthio]-propionate}]
inhibition in vivo at 100 mg/kg ([2]; oral 100 mg/kg, 4 days): 20%
reduction in the (total) lipids ([2]; oral 100 mg/kg, 4 days): 17%

Molecule: CC(COC(=O)C(C)Sc1ccc(Oc2ccc(Cl)cc2)cc1)SCCCCCCCCCCSC(C)COC(=O)C(C)Sc1ccc(Oc2ccc(Cl)cc2)cc1 (racemic) [CRL 40,409, (±)-2,15-Dimethyl-3,14-dithia-1,16-hexadecyl di-(±)-{2-[p-(p-chlorophenoxy)-phenylthio]-propionate}]
reduction in the (total) lipids ([2]; oral 100 mg/kg, 4 days): 9-10%

solubility in alcohol (in words) [1]: insoluble in water and in alcohol
solubility in water (in words) [1]: insoluble in water
Molecule: CC(Oc1ccc(S(=O)(=O)c2ccc(Cl)cc2)cc1)C(=O)OCCNCCSCCCCCCCCCCSCCNCCOC(=O)C(C)Oc1ccc(S(=O)(=O)c2ccc(Cl)cc2)cc1 (racemic) [CRL 40249, 6,17-Dithia-3,20-diaza-1,22-docosanediol di-(±)-2-[p-(p-chlorophenylsulphonyl)-phenoxy]-propionate]

Molecule: CC(COS(C)(=O)=O)Oc1ccc(Oc2ccc(Cl)cc2)cc1 (racemic) [Example 34, (±)-2-[4-(4-Chlorophenoxy)-phenoxyl]-propyl mesylate]
solubility in water (in words) [1]: insoluble in water

solubility in alcohol (in words) [1]: soluble in alcohol
solubility in water (in words) [1]: insoluble in water
Molecule: CC(C)(Oc1ccc(Sc2ccc(Cl)cc2)cc1)C(=O)OCCNCCSCCCCCCCCCCSCCNCCOC(=O)C(C)(C)Oc1ccc(Sc2ccc(Cl)cc2)cc1 [CRL 40 240, 6,17-Dithia-3,20-diaza-1,22-docosanediol di-p-(p-chlorophenylthio)-phenoxy-isobutyrate]

solubility in alcohol (in words) [1]: soluble in alcohol
solubility in water (in words) [1]: insoluble in water
Molecule: CC(C)(Oc1ccc([S+]([O-])c2ccc(Cl)cc2)cc1)C(=O)OCCNCCSCCCCCCCCCCSCCNCCOC(=O)C(C)(C)Oc1ccc([S+]([O-])c2ccc(Cl)cc2)cc1 (centres unmarked) [CRL 40 242, 6,17-Dithia-3,20-diaza-1,22-docosanediol di-[4-(4-chlorosulphinyl)-phenoxy-isobutyrate]]

solubility in water (in words) [1]: insoluble in water
Molecule: CC(C)(Oc1ccc(Sc2ccc(Cl)cc2)cc1)C(=O)N(CCO)CCSCCCCCCCCCCSCCN(CCO)C(=O)C(C)(C)Oc1ccc(Sc2ccc(Cl)cc2)cc1 [CRL 40 254, 3,20-di[p-(p-chlorophenylthio)phenoxy-isobutyryl]-6,17-dithia-3,20-diaza-1,22-docosanediol]

solubility in water (in words) [1]: insoluble in water
Molecule: CC(C)(Oc1ccc(Oc2ccc(Cl)cc2)cc1)C(=O)NCCO [CRL 40 309, N-Hydroxyethyl-2-[4-(4-chlorophenoxy)-phenoxy]-2-methylpropionamide]

solubility in water (in words) [1]: soluble in water
Molecule: CC(C)(CNCCO)Oc1ccc(Oc2ccc(Cl)cc2)cc1 [CRL 40 311, N-Ethanol-2-[4-(4-chlorophenoxy)-phenoxy]-2-methyl-1-propylamine hydrochloride]

Molecule: Cl.NC(COc1ccc(Oc2ccc(Cl)cc2)cc1)=NO [CRL 40 337, 4-(4-Chlorophenoxy)-phenoxy-acetamidoxime hydrochloride]
solubility in water (in words) [1]: partially soluble in water

Molecule: Cl.N=C(N)COc1ccc(Oc2ccc(Cl)cc2)cc1 [CRL 40 338, 4-(4-Chlorophenoxy)-phenoxy-acetamidine hydrochloride]
solubility in water (in words) [1]: soluble in water

solubility in alcohol (in words) [1]: soluble in alcohol
solubility in water (in words) [1]: insoluble in water
Molecule: CC(C)(Oc1ccc(S(=O)(=O)c2ccc(Cl)cc2)cc1)C(=O)O [CRL 40,239, 4-(4-chlorophenylsulphonyl)-phenoxy-isobutyric acid]

solubility in water (in words) [1]: insoluble in water
Molecule: CC(C)(Sc1ccc(Oc2ccc(Cl)cc2)cc1)C(=O)O [CRL 40,275, 4-(4-chlorophenoxy)-phenylthio-isobutyric acid]

solubility in water (in words) [1]: insoluble in water
Molecule: CC(C)(CNCCO)Sc1ccc(Oc2ccc(Cl)cc2)cc1 [CRL 40,279, N-Hydroxyethyl-4-(4-chlorophenoxy)phenylthio-isobutylamine]

solubility in water (in words) [1]: water-insoluble
Molecule: O=C(CSc1ccc(Oc2ccc(Cl)cc2)cc1)OCCSCCCCCCCCCCSCCOC(=O)CSc1ccc(Oc2ccc(Cl)cc2)cc1 [CRL 40,284, 3,14-Dithia-1,16-hexadecyl di-[p-(p-chlorophenoxy)-phenylthio-acetate]]

Molecule: CC(C)(Oc1ccc(Oc2ccc(Cl)cc2)cc1)C(=O)O [CRL 40,308, 4-(4-Chlorophenoxy)-phenoxy-isobutyric acid]
solubility in water (in words) [1]: insoluble in water

solubility in hot alcohol (in words) ([1]; hot alcohol): soluble in hot alcohol
solubility in water (in words) [1]: insoluble in water
Molecule: CC(C)(Oc1ccc(S(=O)(=O)c2ccc(Cl)cc2)cc1)C(=O)OCCNCCSCCCCCCCCCCSCCNCCOC(=O)C(C)(C)Oc1ccc(S(=O)(=O)c2ccc(Cl)cc2)cc1 [CRL 40241, 6,17-Dithia-3,20-diaza-1,22-docosanediol di-p-(p-chlorophenylsulphonyl)-phenoxy-isobutyrate]

Molecule: p-(p-Chlorophenylthio)-phenylthioacetic acid [CRL 40,386]
reduction in the concentration of cholesterol in the plasma [2, 3]: about 20%
reduction in the concentration of lipids in the plasma [2, 3]: about 20%
reduction in the (total) lipids ([2]; oral 100 mg/kg, 4 days): 42%
reduction in the cholesterol ([2]; oral 100 mg/kg, 4 days): 26%
